Activity calls are given as the source filed them. No cut-off for these calls is given here.
Columns and labels:
A549 [1] = assay: Induction of apoptosis in human A549 cells assessed as dying mitochondrial membrane depolarized cells at 4 uM after 24 hrs using JC-1 staining by flow cytometry; type: functional
A549 [2] = assay: Induction of apoptosis in human A549 cells assessed as live mitochondrial membrane polarized cells at 4 uM after 24 hrs followed by irradiated with light dose 0.18 J/cm2 using JC-1 staining by flow cytometry; type: functional
A549 [3] = assay: Inhibition of cell invasion in human A549 cells assessed as invasion index at 4 uM after 72 hrs followed by irradiated with light dose 0.18 J/cm2 relative to control; type: functional; conditions: A549, light or radiation study
A549 [4] = assay: Induction of apoptosis in human A549 cells assessed as late apoptotic mitochondrial membrane depolarized cells at 4 uM after 24 hrs using JC-1 staining by flow cytometry; type: functional
A549 [5] = assay: Cell cycle arrest in human A549 cells assessed as accumulation at S phase at 4 uM after 24 hrs followed by irradiated with light dose 0.18 J/cm2 by flow cytometry; type: functional
AGS = assay: Cytotoxicity against human AGS cells assessed as cell death at 4 uM after 24 hrs followed by irradiated with light dose 0.18 J/cm2 by MTT assay; type: functional, cell-based
A549 [6] = assay: Antitumor activity against human A549 cells xenografted in nude BALB/C mouse assessed as tumor shrinkage at 8 uM after 24 hrs followed by irradiated with light dose 78 J/cm2 measured after 10 days; type: functional, cell-based
A549 [7] = assay: Induction of apoptosis in human A549 cells assessed as viable cells at 4 uM after 24 hrs followed by irradiated with light dose 0.18 J/cm2 using annexin-V FITC/PI double staining by flow cytometry; type: functional; conditions: A549, light or radiation study, read-out: Activity
A549 [8] = assay: Induction of apoptosis in human A549 cells assessed as pre-necrotic cells at 4 uM after 24 hrs followed by irradiated with light dose 0.18 J/cm2 using annexin-V FITC/PI double staining by flow cytometry; type: functional
[9] = Drug uptake in human A549 cell nucleus by using Hoechst 33258 staining; type: ADME, cell-based
A549 [10] = assay: Cytotoxicity against human A549 cells assessed as cell death at 4 uM after 24 hrs followed by irradiated with light dose 0.18 J/cm2 by MTT assay; type: functional, cell-based
A549 [11] = assay: Inhibition of cell invasion in human A549 cells assessed as invasion index at 4 uM after 72 hrs relative to control; type: functional; conditions: A549, 72 h
A549 [12] = assay: Induction of apoptosis in human A549 cells assessed as viable cells at 4 uM after 24 hrs using annexin-V FITC/PI double staining by flow cytometry; type: functional; conditions: A549, 24 h, read-out: Activity
A549 [13] = assay: Induction of apoptosis in human A549 cells assessed as late apoptotic cells at 4 uM after 24 hrs using annexin-V-PE/7-AAD double staining by flow cytometry; type: functional
[14] = Drug uptake in human A549 cell mitochondria by using Hoechst 33258 staining; type: ADME
A549 [15] = assay: Induction of apoptosis in human A549 cells assessed as apoptotic cells at 4 uM after 24 hrs using annexin-V-PE/7-AAD double staining by flow cytometry; type: functional
A549 [16] = assay: Induction of apoptosis in human A549 cells transfected with lentivirus GFP assessed as reduction of GFP mRNA level at 4 uM after 24 hrs followed by irradiated with light dose 0.18 J/cm2 by MTT assay; type: functional; parameters: scale not given: the % may be the effect or the level left
A549 [17] = assay: Induction of apoptosis in human A549 cells transfected with lentivirus Smac-siRNA assessed as reduction of Smac mRNA level at 4 uM after 24 hrs followed by irradiated with light dose 0.18 J/cm2 by MTT assay; type: functional; parameters: scale not given: the % may be the effect or the level left
A549 [18] = assay: Induction of apoptosis in human A549 cells assessed as apoptotic cells at 4 uM after 24 hrs followed by irradiated with light dose 0.18 J/cm2 using annexin-V FITC/PI double staining by flow cytometry; type: functional
A549 [19] = assay: Induction of apoptosis in human A549 cells assessed as viable cells at 4 uM after 24 hrs using annexin-V-PE/7-AAD double staining by flow cytometry; type: functional; conditions: A549, 24 h, read-out: Activity
A549 [20] = assay: Cell cycle arrest in human A549 cells assessed as accumulation at G2/M phase at 4 uM after 24 hrs by flow cytometry; type: functional
A549 [21] = assay: Induction of apoptosis in human A549 cells assessed as upregulation of TNFSF13 mRNA expression at 4 uM after 24 hrs followed by irradiated with light dose 0.18 J/cm2 by RT-PCR analysis; type: functional, cell-based
A549 [22] = assay: Induction of apoptosis in human A549 cells assessed as apoptotic cells at 4 uM after 24 hrs followed by irradiated with light dose 0.18 J/cm2 using annexin-V-PE/7-AAD double staining by flow cytometry; type: functional
A549 [23] = assay: Antitumor activity against human A549 cells xenografted in nude BALB/C mouse assessed as scab formation at 8 uM after 24 hrs followed by irradiated with light dose 78 J/cm2 measured after 20 days; type: functional, cell-based
A549 [24] = assay: Cell cycle arrest in human A549 cells assessed as accumulation at G0/G1 phase at 4 uM after 24 hrs followed by irradiated with light dose 0.18 J/cm2 by flow cytometry; type: functional
A549 [25] = assay: Induction of apoptosis in human A549 cells assessed as late apoptotic cells at 4 uM after 24 hrs followed by irradiated with light dose 0.18 J/cm2 using annexin-V FITC/PI double staining by flow cytometry; type: functional
A549 [26] = assay: Antitumor activity against human A549 cells xenografted in nude BALB/C mouse assessed as dark tumor at 8 uM after 24 hrs followed by irradiated with light dose 78 J/cm2 measured after 10 days; type: functional, cell-based
A549 [27] = assay: Induction of apoptosis in human A549 cells assessed as pre-necrotic cells at 4 uM after 24 hrs followed by irradiated with light dose 0.18 J/cm2 using annexin-V-PE/7-AAD double staining by flow cytometry; type: functional
A549 [28] = assay: Induction of apoptosis in human A549 cells assessed as live mitochondrial membrane polarized cells at 4 uM after 24 hrs using JC-1 staining by flow cytometry; type: functional
SGC-7901 = assay: Cytotoxicity against human SGC7901 cells assessed as cell death at 4 uM after 24 hrs followed by irradiated with light dose 0.18 J/cm2 by MTT assay; type: functional, cell-based

C=Cc1c(C)c2cc3nc(c4c5[nH]c(cc6nc(cc1[nH]2)C(C)=C6CC)c(C)c5C(=O)N(C1CCCCC1)C4=O)[C@@H](CCC(=O)O)[C@@H]3C
Activity (A549 [1]): 9.35% | Activity (A549 [2]): 0.01% | inhibition at 4 µM (A549 [3]): 15.7% | Activity (A549 [4]): 88.88% | Activity (A549 [5]): 21.56% | Activity (AGS): Active | Activity (A549 [6]): Active | viability at 4 µM (A549 [7]): 2.08% | Activity (A549 [8]): 0.4% | Drug uptake [9]: Active | Activity (A549 [10]): Active | inhibition at 4 µM (A549 [11]): 76.4% | viability at 4 µM (A549 [12]): 92.3% | Activity (A549 [13]): 3.6% | Drug uptake [14]: Active | Activity (A549 [15]): 2.96% | Activity (A549 [16]): 18.8% | Activity (A549 [17]): 60% | Activity (A549 [18]): 74.24% | viability at 4 µM (A549 [19]): 91% | Activity (A549 [20]): 11.07% | Activity (A549 [21]): Active | Activity (A549 [22]): 55.33% | Activity (A549 [23]): Active | Activity (A549 [24]): 22.37% | Activity (A549 [25]): 23.28% | Activity (A549 [26]): Active | Activity (A549 [27]): 7.63% | Activity (A549 [28]): 0% | Activity (SGC-7901): Active
